SMILES strings stand for the structures. Bounds are passed on as bounds.

One may read the MRT last as the average time that molecules of a dose stay in the body. In general, IC50 refers to the point on the concentration scale where inhibition reaches its midpoint. For orientation: Tmax means the time at which the peak concentration occurs. As usually defined, the AUC(0-inf) is total exposure, with the tail of the curve extrapolated. The term AUC(0-t) denotes the area under the concentration-time curve up to a stated or last time point. What is called Cmax is the maximum level reached in the sampled fluid or tissue. The term half-life denotes the time needed for the level to fall by half in the phase considered.

The nature of data set [1]: MRT (0 to t) in Sprague-Dawley rat measured at 10 mg/kg, po for 0.083 to 24 hrs by LC-MS/MS analysis. The format is ADME, organism-based. The settings on record: in vivo, time 0.083-24 hrs.
Data set [2] has as its system NCI-H1581. The data set is described as follows: Antiproliferative activity against human NCI-H1581 cells incubated for 72 hrs by Cell counting kit 8 method. The format is functional, cell-based. The conditions noted are these: NCI-H1581, 72 h. (Formazan colour is commonly taken as a measure of viable cells.)
Data set [3] in a line: Tmax in Sprague-Dawley rat measured at 100 mg/kg, po for 0.083 to 24 hrs by LC-MS/MS analysis. It is filed as ADME, organism-based. The conditions noted are these: in vivo, time 0.083-24 hrs.
Another data set concerns SNU-16. The data set is described as follows: Antiproliferative activity against human SNU-16 cells incubated for 72 hrs by Cell counting kit 8 method. The format is functional, cell-based. The conditions noted are these: SNU-16, 72 h.
The nature of data set [4]: AUC (0 to infinity) in Sprague-Dawley rat measured at 2 mg/kg, iv for 0.083 to 24 hrs by LC-MS/MS analysis. It is filed as ADME, organism-based. Also on record: time lower 0.083 hrs, dose 2 mg/kg, time upper 24 hrs, route iv. The settings on record: in vivo.
Data set [5] in a line: AUC(0 to t) in Sprague-Dawley rat measured at 30 mg/kg, po for 0.083 to 24 hrs by LC-MS/MS analysis. Also on record: time 0.083-24 hrs, dose 30 mg/kg, route po. The settings on record: in vivo. The format is ADME, organism-based.
Data set [6] relates to NCI-H1581. The data set is described as follows: Antitumor activity against human NCI-H1581 cells xenografted in BALB/c nude mouse assessed as tumor growth inhibition once daily at 60 mg/kg, po for 24 days relative to control. The settings on record: time 24 day. The format is functional. Details: scale not given: the % may be the effect or the level left. On the technique in general: Xenograft models place foreign cells or tissue in a host animal.

Data set [7] deals with Huh-7. The data set is described as follows: Antitumor activity against human Huh-7 cells xenografted in BALB/c nude mouse assessed as tumor growth inhibition once daily at 60 mg/kg, po for 24 days relative to control. It is filed as functional. Details: scale not given: the % may be the effect or the level left. The conditions noted are these: time 24 day.
The subject of data set [8] is Huh-7. The data set is described as follows: Antitumor activity against human Huh-7 cells xenografted in BALB/c nude mouse assessed as tumor growth inhibition once daily at 30 mg/kg, po for 24 days relative to control. The format is functional. Also on record: scale not given: the % may be the effect or the level left. The settings on record: time 24 day.
A short description of data set [9]: Cmax in Sprague-Dawley rat measured at 100 mg/kg, po for 0.083 to 24 hrs by LC-MS/MS analysis. It is filed as ADME, organism-based. Details: time upper 24 hrs, dose 100 mg/kg, time lower 0.083 hrs, route po. The conditions noted are these: in vivo.
Data set [10] in a line: Tmax in Sprague-Dawley rat measured at 10 mg/kg, po for 0.083 to 24 hrs by LC-MS/MS analysis. The format is ADME, organism-based. The settings on record: in vivo, time 0.083-24 hrs.
The test system of data set [11] is Huh-7. The data set is described as follows: Antitumor activity against human Huh-7 cells xenografted in BALB/c nude mouse assessed as reduction in tumor growth once daily administered orally for 24 days. The conditions noted are these: dose 15-60 mg/kg, route po, time 24.0 day. The format is functional.
The nature of data set [12]: Half life in Sprague-Dawley rat measured at 30 mg/kg, po for 0.083 to 24 hrs by LC-MS/MS analysis. It is filed as ADME, organism-based. The conditions noted are these: in vivo, time 0.083-24 hrs.
Data set [13] is described as follows: Half life in Sprague-Dawley rat measured at 10 mg/kg, po for 0.083 to 24 hrs by LC-MS/MS analysis. It is filed as ADME, organism-based. The conditions noted are these: in vivo, time 0.083-24 hrs.
A short description of data set [14]: AUC (0 to infinity) in Sprague-Dawley rat measured at 10 mg/kg, po for 0.083 to 24 hrs by LC-MS/MS analysis. It is filed as ADME, organism-based. Details: dose 10 mg/kg, time upper 24 hrs, time lower 0.083 hrs, route po. The settings on record: in vivo.
Data set [15] can be described thus: Cmax in Sprague-Dawley rat measured at 2 mg/kg, iv for 0.083 to 24 hrs by LC-MS/MS analysis. The format is ADME, organism-based. Details: time upper 24 hrs, time lower 0.083 hrs, dose 2 mg/kg, route iv. The conditions noted are these: in vivo.
The nature of data set [16]: AUC(0 to infinity) in Sprague-Dawley rat measured at 60 mg/kg, po for 0.083 to 24 hrs by LC-MS/MS analysis. The format is ADME, organism-based. Also on record: time lower 0.083 hrs, dose 60 mg/kg, time upper 24 hrs, route po. The conditions noted are these: in vivo.
The nature of data set [17]: Half life in Sprague-Dawley rat measured at 60 mg/kg, po for 0.083 to 24 hrs by LC-MS/MS analysis. It is filed as ADME, organism-based. The conditions noted are these: in vivo, time 0.083-24 hrs.
Data set [18] in a line: Cmax in Sprague-Dawley rat measured at 30 mg/kg, po for 0.083 to 24 hrs by LC-MS/MS analysis. Also on record: dose 30 mg/kg, time upper 24 hrs, time lower 0.083 hrs, route po. The format is ADME, organism-based. The conditions noted are these: in vivo.

`C=CC(=O)N1CCC(c2cc3c(Oc4ccc(NC(=O)NC5CC5)c(Cl)c4)ccnc3cc2OC)CC1` came in with an MRT last in data set [1] of 1.99 h. The IC50 in the data set with NCI-H1581 [2] was below 0.31 nM; in the data set with SNU-16, 1.8 nM. Also, the Tmax in [3] came to 0.5 h; in [10], 0.25 h. Besides, the total exposure AUC(0-inf) was found to be 572 ng·h/mL in data set [4], 1970 ng·h/mL in data set [14] and 14900 ng·h/mL in data set [16]. Moreover, the AUC(0-t) in [5] is 7920 ng·h/mL. The Activity with NCI-H1581 [6] is 67%; with Huh-7 [7], 88.2%; in the data set with Huh-7 [8], 89.6%; in the data set with Huh-7 [11], “Dose-Dependent Effect”. Also, the Cmax is 14600 ng/mL in data set [9], 1840 ng/mL in data set [15] and 6070 ng/mL in data set [18]. Also, the half-life in [12] was 3.22 h; in data set [13], 2.48 h; in data set [17], 2.42 h.

Source of the values: ChEMBL document CHEMBL5346943, “Discovery and Structural Optimization of Novel Quinolone Derivatives as Potent Irreversible Pan-Fibroblast Growth Factor Receptor Inhibitors for Treating Solid Tumors” (J Med Chem, 2023).
